Tests used:
[1] = target: T1, Ba/F3 SLC34A2-ROS1-WT stably transfected cell line (Homo sapiens, UniProt P08922); test: Cell proliferation inhibition (CellTiter-Glo); assay type: cell-based; details: 72 hours, read-out: The half maximal inhibitory concentration IC50 against cells, Ba/F3 SLC34A2-ROS1-WT
T1 construct: fused on or other part: O95436 (Sodium-dependent phosphate transport protein 2B)

[2] = target: T2, BaF3 ETV6-NTRK3-G623R stably transfected cell line (Homo sapiens, UniProt Q16288, G623R, cells depend on it); test: Cell proliferation inhibition (CellTiter-Glo); assay type: cell-based; details: 72 hours, read-out: The half maximal inhibitory concentration IC50 against cells, BaF3 ETV6-NTRK3-G623R
T2 construct: fused on or other part: P41212 (Transcription factor ETV6)
T2 sequence (Q16288 whole entry G623R, the tested form may be a part): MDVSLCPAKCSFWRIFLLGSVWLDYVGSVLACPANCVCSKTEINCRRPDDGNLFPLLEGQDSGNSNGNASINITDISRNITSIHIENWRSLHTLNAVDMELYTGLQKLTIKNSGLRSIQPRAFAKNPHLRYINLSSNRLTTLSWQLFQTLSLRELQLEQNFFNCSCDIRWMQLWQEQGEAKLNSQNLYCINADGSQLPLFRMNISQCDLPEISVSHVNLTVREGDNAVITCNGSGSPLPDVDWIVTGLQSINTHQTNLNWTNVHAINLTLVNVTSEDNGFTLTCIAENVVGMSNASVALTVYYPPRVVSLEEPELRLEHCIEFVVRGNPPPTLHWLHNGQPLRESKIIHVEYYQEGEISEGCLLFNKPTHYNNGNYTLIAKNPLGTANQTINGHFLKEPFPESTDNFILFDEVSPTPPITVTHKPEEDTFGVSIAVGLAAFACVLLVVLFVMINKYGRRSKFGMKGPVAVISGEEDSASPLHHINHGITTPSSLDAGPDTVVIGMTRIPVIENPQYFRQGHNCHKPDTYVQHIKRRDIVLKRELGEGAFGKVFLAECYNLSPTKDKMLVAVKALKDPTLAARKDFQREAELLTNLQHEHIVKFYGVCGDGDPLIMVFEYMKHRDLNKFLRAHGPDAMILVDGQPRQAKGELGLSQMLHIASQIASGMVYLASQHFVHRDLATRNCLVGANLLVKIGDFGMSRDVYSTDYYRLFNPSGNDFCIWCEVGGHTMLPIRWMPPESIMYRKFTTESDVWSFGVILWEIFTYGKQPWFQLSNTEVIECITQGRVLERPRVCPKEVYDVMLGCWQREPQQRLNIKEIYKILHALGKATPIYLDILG

ALK = target: T3, ALK (Homo sapiens, UniProt Q9UM73); test: Kinase inhibitory activity (33P-ATP filter binding, Reaction Biology Corp.); assay type: biochemical; details: read-out: The half maximal inhibitory concentration IC50 on the kinases, ALK
T3 construct: purchased Reaction Biology Corp. (contract assay)
T3 sequence (Q9UM73 19-1620): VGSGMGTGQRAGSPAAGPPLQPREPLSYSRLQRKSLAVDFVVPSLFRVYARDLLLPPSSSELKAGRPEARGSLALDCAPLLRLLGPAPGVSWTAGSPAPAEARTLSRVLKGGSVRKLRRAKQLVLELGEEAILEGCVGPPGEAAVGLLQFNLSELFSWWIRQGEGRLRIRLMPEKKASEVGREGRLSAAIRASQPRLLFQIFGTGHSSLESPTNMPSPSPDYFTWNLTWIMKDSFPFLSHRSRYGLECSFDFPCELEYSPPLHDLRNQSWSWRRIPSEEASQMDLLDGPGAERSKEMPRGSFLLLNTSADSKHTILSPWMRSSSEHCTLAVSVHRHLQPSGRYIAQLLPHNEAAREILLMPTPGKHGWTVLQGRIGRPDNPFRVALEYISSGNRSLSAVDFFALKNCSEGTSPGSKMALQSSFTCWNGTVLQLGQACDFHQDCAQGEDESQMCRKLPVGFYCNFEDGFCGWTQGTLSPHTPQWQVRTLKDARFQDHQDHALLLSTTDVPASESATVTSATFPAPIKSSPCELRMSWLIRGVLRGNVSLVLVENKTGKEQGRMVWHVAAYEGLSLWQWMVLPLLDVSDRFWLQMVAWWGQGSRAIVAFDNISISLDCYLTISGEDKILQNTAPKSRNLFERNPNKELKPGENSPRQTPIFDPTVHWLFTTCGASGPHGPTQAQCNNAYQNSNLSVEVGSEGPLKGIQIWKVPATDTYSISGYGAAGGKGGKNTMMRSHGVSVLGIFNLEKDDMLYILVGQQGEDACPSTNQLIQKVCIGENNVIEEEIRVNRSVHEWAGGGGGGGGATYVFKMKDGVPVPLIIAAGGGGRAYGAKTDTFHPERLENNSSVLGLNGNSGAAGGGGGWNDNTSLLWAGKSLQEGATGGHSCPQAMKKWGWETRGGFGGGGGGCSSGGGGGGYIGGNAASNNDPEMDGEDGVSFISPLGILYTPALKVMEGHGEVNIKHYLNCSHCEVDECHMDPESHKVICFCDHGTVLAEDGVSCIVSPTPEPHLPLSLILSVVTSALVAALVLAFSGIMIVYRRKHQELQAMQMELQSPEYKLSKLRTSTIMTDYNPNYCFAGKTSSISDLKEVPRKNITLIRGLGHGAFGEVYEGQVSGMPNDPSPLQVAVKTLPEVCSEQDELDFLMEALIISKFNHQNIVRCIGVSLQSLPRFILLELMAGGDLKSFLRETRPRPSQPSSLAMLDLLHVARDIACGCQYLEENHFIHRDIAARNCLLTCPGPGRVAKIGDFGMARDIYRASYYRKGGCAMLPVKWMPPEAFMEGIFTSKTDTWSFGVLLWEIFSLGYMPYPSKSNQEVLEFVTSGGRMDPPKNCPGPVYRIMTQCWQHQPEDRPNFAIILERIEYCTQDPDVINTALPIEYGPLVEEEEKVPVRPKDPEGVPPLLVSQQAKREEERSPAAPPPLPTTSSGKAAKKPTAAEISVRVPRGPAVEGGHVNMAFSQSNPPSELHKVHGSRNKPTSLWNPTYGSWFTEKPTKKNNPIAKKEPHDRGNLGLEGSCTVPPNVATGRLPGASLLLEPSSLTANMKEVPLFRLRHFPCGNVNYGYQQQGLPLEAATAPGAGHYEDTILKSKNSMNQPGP
How it was run: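 Compounds (10 concentrations, 3-fold dilutions, 2% DMSO final) preincubated 20 min at room temperature with kinase and substrate in Hepes pH 7.5 buffer. Reaction started with ^33P-ATP, 120 min at room temperature; filter-binding radioactivity expressed as activity remaining versus DMSO control, IC50 from fitted dose-response curve.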

[3] = test system: human lung cancer LU-01-0414 subcutaneous xenograft tumor; test: In vivo efficacy, subcutaneous xenograft tumor of human lung cancer LU-01-0414; set-up: species or system BALB/c mouse; details: LU-01-0414 xenograft, 14th day, PO
Description: Experimental object: evaluation of the in vivo efficacy of test drugs such as WX002A on subcutaneous xenograft tumor of human lung cancer LU-01-0414 in BALB/c mouse model.
(§1) Drug preparation: The compounds were all prepared into clear solutions with 5% DMSO+10% solutol+85% water as solvent for administration in the PO (intragastric) group.
(§2) Tumor measurement: the tumor diameters were measured with a vernier caliper twice a week. The calculation formula of tumor volume is: V=0.5×a×b^2, wherein a and b represent the long diameter and short diameter of the tumor, respectively. The anti-tumor efficacy of the compounds was evaluated by TGI (%). TGI (%) reflects tumor growth inhibition rate.
Statistical analysis: the statistical analysis was based on the relative tumor volume and tumor weight at the end of the experiment using SPSS software. One-way ANOVA was used to analyze the comparison between multiple groups. […] P<0.05 was considered to indicate significant difference.

[4] = target: T4, Ba/F3 SLC34A2-ROS1-G2032R stably transfected cell line (Homo sapiens, UniProt P08922, G2032R, cells depend on it); test: Cell proliferation inhibition (CellTiter-Glo); assay type: cell-based; details: 72 hours, read-out: The half maximal inhibitory concentration IC50 against cells, Ba/F3 SLC34A2-ROS1-G2032R
T4 construct: fused on or other part: O95436 (Sodium-dependent phosphate transport protein 2B)
T4 sequence (P08922 whole entry G2032R, the tested form may be a part): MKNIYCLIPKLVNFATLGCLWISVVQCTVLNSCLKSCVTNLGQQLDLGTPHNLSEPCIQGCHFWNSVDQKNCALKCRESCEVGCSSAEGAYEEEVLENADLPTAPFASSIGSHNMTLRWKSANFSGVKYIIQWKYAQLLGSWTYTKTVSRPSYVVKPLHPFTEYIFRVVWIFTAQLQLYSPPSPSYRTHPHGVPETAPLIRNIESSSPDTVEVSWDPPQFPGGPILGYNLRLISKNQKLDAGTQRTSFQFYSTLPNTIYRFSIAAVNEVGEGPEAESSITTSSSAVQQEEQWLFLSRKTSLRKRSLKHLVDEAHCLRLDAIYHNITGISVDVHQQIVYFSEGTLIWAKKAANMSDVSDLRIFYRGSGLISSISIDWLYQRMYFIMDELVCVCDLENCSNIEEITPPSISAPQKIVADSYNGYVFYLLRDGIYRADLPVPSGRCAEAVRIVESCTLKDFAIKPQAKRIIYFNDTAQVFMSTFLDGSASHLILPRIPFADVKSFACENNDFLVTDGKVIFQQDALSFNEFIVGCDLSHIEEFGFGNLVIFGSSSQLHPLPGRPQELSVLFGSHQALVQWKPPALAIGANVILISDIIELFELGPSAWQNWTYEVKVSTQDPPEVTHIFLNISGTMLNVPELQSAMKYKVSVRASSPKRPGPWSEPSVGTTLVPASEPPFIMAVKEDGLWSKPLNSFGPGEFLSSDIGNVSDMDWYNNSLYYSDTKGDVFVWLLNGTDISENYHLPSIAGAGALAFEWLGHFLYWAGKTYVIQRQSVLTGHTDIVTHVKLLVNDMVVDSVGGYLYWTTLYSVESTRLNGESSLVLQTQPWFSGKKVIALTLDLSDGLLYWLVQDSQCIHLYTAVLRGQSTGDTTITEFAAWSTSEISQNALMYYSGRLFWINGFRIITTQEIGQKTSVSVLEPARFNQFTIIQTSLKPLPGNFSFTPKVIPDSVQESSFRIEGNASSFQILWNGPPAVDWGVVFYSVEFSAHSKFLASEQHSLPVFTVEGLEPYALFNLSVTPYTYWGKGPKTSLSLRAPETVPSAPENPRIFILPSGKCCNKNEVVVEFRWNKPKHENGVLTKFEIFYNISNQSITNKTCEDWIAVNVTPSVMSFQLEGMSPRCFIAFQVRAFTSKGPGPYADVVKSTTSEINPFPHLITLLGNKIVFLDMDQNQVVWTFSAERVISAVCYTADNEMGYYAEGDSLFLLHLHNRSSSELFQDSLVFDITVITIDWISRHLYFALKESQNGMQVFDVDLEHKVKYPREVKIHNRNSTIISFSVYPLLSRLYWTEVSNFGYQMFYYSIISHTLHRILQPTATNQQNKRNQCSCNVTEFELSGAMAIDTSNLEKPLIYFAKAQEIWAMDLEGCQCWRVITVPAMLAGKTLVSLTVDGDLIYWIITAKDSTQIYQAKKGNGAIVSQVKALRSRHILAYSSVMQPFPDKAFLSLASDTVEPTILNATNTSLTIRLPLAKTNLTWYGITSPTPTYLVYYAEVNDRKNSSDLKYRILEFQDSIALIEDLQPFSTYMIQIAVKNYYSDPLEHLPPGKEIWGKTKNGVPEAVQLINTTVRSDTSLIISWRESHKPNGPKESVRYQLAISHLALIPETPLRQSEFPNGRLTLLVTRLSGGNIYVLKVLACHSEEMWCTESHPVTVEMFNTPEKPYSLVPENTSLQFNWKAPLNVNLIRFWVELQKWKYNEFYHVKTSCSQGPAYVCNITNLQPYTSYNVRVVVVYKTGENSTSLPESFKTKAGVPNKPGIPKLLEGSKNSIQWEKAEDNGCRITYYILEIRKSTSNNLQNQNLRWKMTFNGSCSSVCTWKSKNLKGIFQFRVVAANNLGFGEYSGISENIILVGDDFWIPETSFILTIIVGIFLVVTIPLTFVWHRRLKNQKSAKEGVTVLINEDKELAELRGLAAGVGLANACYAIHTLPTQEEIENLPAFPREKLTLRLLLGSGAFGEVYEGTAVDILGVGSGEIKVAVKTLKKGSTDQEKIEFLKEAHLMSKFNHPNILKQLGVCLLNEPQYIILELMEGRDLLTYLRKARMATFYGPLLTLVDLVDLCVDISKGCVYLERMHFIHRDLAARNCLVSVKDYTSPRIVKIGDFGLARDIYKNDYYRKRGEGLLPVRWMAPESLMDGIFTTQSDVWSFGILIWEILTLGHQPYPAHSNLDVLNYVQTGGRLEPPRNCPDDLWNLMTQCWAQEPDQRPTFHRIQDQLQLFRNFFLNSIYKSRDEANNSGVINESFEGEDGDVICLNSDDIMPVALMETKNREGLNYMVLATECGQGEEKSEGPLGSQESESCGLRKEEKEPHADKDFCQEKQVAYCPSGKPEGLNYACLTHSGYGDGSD

[5] = test system: human colon cancer cell line KM12 subcutaneous xenograft tumor; test: In vivo efficacy, subcutaneous xenograft tumor of human colon cancer KM12; set-up: species or system BALB/c mouse; details: PO
Description: Experimental object: evaluation of the in vivo efficacy of test drugs such as WX002A on subcutaneous xenograft tumor of human colon cancer cell line KM12 cell in BALB/c mouse model.
as §1
as §2, with “is” for “was”
Statistical analysis: The statistical analysis was based on the relative tumor volume and tumor weight at the end of the experiment using SPSS software. One-way ANOVA was used to analyze the comparison between multiple groups. […] P<0.05 was considered to indicate significant difference.

[6] = In vivo cassette pharmacokinetic test in mice; set-up: species or system male CD-1 mice; details: cassette, mice
Description: The dose of the compounds: […] PO dose of 3 mg/kg, and administration volume of 3 mL/kg.

T1 sequence (P08922 whole entry, stated change not applied, the tested form may be a part): as the sequence (P08922 whole entry G2032R, the tested form may be a part) above, with R2032G counted along it

Compound `O=C1NC2(CC2)COc2ncc(F)cc2[C@H]2CCON2c2ccn3ncc1c3n2` [WX002A] has a GI50 [1] of 2.53 nM, a GI50 [2] of 3.4 nM and an IC50 (ALK) of 13 nM. The T/C ([3]; 3 mg/kg BID) was 9.57%, the TGI ([3]; 3 mg/kg BID) was 118.02% and the T/C ([3]; 15 mg/kg BID) was 3.07%. It also gave a TGI ([3]; 15 mg/kg BID) of 126.88%, a T/C ([3]; 30 mg/kg BID) of 1.87% and a TGI ([3]; 30 mg/kg BID) of 128.36%. For the same compound, the GI50 [4] was 16.1 nM, the T/C ([5]; dose of 3 mg/kg) was 33.18% and the TGI ([5]; dose of 3 mg/kg) was 71.23%. The T/C ([5]; dose of 15 mg/kg) was 15.63%, the TGI ([5]; dose of 15 mg/kg) was 88.61% and the “Apparent clearance Cl” value ([6]; IV @ 1 mpk) was 6.3 mL/min/kg. The “Apparent volume of distribution Vd” value ([6]; IV @ 1 mpk) was 0.57 L/kg, the “Area under curve AUC0-inf” value ([6]; IV @ 1 mpk) was 6.689 µM·h and the “Half life T1/2” value ([6]; IV @ 1 mpk) was 52.8 min. The C0 ([6]; IV @ 1 mpk, plasma, read-out: Initial concentration C0) was 3.71 µM, the “Bioavailability F %” value ([6]; PO @ 3 mpk vs IV @ 1 mpk) was 76% and the “Area under curve AUC0-inf” value ([6]; PO @ 3 mpk) was 19.769 µM·h. The “Time of peak concentration Tmax” value ([6]; PO @ 3 mpk) was 15 min, the “drug concentration in cerebrospinal fluid at 0.5 hour CSF@0.5 h” value ([6]; PO @ 3 mpk, CSF, 0.5 h) was 63 nmol/kg and the “drug concentration in cerebrospinal fluid at 2 hour CSF@2 h” value ([6]; PO @ 3 mpk, CSF, 2 h) was 21 nmol/kg. The “drug concentration in brain at 0.5 h Brain@0.5 h” value ([6]; PO @ 3 mpk, brain, 0.5 h) was 663 nmol/kg, the “drug concentration in brain at 2 h Brain@2 h” value ([6]; PO @ 3 mpk, brain, 2 h) was 343 nmol/kg and the Cmax ([6]; PO @ 3 mpk, read-out: Peak concentration Cmax) was 4.74 µM.

In the case of `O=C1N[C@@H]2COC[C@@H]2Oc2ncc(F)cc2[C@H]2CCON2c2ccn3ncc1c3n2` [WX008A], the GI50 [1] is reported as 5.45 nM, the GI50 [2] is reported as 3.49 nM and the IC50 (ALK) is reported as 10.4 nM. For the same compound, the GI50 [4] was 38.5 nM.

— patent US11464780B2, “Pyrazolopyrimidine derivative and use thereof” (Simcere Pharmaceutical Co. Ltd., priority 2018, dated 2022)
